# Experimental data reported in patent US9340590B2 (priority 2011, dated 2016).
# Read-outs that look alike come from different tables or passages of the source. Positions of bridges follow the written chain, without caps; N, C: chain ends. Non-standard residues stand in square brackets, D forms with d. Residues, ends and D or L forms follow the SMILES beside them. Abu = CC[C@H](N)C(=O)O
# Legend:
# [1] = test system: locomotor activity in male CD-1 mice; settings: 5 mg/kg
# in vivo [2] = settings: male, CD-1, mouse, sc, 5 mg/kg, terminal exposure (peptide plasma concentration at 2 h post peptide injection), later studies, 5 mg/kg s.c.
# hNav1.7 [3] = molecular target: T1, hNav1.7 (Homo sapiens, UniProt Q15858); assay: cell-based; settings: Nav1.7 Use IC50
# T1 sequence (Q15858 whole entry, looked up): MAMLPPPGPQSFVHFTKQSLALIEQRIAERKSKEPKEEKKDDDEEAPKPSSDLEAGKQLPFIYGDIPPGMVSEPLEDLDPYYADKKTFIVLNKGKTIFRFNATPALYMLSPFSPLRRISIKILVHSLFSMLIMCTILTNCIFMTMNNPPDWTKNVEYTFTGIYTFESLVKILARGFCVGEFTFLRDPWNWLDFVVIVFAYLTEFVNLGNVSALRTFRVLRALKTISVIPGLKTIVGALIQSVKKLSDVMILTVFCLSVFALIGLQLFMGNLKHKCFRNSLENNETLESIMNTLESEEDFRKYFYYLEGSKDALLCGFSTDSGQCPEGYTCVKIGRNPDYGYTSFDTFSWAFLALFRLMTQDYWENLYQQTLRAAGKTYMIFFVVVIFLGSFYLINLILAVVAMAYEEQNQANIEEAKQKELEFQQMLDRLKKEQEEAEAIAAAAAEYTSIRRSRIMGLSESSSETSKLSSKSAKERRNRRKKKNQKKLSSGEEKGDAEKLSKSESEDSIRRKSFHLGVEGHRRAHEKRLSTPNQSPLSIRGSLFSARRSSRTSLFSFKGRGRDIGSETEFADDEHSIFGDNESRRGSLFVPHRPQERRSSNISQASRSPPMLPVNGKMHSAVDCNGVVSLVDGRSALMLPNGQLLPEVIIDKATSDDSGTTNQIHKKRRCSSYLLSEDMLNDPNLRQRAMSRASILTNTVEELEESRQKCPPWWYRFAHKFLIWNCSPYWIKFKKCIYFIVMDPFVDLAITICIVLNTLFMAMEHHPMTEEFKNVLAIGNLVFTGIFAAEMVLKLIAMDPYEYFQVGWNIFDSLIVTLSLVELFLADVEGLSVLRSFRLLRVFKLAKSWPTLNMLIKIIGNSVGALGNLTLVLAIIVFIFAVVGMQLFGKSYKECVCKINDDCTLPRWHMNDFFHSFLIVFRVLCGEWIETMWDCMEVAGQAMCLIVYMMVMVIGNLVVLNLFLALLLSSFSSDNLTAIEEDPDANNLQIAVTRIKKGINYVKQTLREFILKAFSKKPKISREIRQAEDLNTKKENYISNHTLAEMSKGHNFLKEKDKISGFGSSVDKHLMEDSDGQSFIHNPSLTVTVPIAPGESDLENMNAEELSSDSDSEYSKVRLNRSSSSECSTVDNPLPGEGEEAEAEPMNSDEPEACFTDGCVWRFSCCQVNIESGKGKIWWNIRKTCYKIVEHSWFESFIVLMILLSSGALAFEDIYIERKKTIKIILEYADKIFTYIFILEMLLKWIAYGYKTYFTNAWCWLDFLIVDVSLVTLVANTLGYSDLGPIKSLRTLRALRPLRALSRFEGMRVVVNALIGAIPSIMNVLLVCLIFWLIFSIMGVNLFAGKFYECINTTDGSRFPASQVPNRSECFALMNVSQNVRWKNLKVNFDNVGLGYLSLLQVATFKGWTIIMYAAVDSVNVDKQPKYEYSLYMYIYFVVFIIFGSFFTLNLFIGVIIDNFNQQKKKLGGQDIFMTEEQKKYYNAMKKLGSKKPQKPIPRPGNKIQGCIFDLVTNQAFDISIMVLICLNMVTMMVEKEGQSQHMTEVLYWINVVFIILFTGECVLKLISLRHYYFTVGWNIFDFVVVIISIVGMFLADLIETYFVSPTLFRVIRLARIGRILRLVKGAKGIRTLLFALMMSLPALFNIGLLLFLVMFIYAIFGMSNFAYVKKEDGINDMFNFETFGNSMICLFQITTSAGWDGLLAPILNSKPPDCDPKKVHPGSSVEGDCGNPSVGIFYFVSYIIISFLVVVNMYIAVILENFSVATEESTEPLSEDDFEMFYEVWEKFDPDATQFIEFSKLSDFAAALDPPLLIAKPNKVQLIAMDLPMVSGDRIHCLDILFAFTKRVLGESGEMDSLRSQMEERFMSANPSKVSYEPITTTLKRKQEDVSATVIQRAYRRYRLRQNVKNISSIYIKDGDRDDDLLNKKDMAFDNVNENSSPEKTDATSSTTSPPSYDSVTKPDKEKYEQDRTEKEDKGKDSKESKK
# [4] = rat plasma, 37° C.
# hNav1.3 = hNav1.3 (Homo sapiens, UniProt Q9NY46); assay: cell-based; format: cell-based
# hNav1.5 [5] = molecular target: T2, hNav1.5 (Homo sapiens, UniProt Q14524); assay: cell-based; settings: read-out: Nav1.5 Use IC50
# T2 sequence (Q14524 whole entry, looked up): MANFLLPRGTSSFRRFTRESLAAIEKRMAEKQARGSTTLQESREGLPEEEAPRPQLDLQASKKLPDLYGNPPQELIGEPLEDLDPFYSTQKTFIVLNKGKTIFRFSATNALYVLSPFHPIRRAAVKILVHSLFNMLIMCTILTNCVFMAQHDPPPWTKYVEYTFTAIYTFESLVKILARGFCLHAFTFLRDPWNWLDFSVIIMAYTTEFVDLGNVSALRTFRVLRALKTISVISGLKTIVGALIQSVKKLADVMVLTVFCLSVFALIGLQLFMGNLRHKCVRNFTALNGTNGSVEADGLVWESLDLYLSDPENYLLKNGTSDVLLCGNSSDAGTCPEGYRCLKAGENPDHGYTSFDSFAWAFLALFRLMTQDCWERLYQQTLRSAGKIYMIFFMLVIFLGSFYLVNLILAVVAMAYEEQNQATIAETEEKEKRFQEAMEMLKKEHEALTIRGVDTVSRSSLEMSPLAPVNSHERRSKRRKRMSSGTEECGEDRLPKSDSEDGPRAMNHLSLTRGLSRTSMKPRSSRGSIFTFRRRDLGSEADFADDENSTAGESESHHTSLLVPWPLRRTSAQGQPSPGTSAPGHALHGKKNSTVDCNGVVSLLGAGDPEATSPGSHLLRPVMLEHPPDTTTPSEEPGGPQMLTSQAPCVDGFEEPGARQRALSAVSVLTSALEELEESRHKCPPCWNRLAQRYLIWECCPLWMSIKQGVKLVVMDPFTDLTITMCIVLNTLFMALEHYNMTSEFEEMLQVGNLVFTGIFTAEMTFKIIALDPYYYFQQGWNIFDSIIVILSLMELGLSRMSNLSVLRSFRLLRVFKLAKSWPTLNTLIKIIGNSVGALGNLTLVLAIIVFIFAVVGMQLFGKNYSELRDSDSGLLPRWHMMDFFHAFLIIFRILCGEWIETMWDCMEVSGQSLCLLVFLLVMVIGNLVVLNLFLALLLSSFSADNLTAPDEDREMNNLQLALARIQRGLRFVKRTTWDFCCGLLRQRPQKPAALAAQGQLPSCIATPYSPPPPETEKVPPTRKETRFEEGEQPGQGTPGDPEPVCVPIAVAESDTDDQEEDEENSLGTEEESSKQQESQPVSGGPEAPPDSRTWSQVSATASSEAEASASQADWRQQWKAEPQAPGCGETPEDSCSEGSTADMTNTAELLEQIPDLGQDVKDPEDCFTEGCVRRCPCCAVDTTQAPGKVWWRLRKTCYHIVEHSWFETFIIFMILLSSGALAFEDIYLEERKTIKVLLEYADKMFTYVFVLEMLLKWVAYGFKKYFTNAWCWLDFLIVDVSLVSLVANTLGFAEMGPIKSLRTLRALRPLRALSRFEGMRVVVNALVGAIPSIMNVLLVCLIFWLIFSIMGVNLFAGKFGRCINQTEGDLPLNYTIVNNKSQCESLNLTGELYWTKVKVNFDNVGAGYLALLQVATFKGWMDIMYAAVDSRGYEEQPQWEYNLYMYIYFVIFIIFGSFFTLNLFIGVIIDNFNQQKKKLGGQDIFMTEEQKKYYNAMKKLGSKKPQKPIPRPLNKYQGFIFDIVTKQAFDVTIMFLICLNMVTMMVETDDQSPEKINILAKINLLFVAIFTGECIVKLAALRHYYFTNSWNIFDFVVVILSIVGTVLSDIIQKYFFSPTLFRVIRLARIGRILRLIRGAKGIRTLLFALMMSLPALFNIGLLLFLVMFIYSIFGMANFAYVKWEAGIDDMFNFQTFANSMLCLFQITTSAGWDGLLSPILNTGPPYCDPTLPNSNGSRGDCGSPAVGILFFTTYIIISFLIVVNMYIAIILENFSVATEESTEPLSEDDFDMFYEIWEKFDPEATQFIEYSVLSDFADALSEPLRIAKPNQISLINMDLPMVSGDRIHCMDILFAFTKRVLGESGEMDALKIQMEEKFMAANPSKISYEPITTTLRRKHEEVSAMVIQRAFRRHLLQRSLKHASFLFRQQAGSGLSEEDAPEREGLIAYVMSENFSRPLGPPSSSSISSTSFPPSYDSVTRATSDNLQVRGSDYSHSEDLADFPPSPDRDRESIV
# in vivo [6] = settings: male, CD-1, mouse, sc, 5 mg/kg, terminal exposure (peptide plasma concentration at 45 min post formalin injection)
# [7] = test system: veratridine-induced spontaneous nociceptive behaviors in male CD-1 mice; settings: mouse, in vivo
# NaV1.7 = settings: read-out: EC50, impairs fast inactivation; cited from earlier work
# mechanical hyperalgesia = settings: rat, in vivo; cited from earlier work
# [8] = rat, in vivo, 0.1 mg/kg; cited from earlier work
# [9] = test system: C-fiber compound action potential; settings: cited from earlier work
# hNav1.4 = hNav1.4 (Homo sapiens, UniProt P35499); assay: cell-based; settings: read-out: Nav1.4 Use IC50
# hNav1.7 [10] = molecular target: T1, hNav1.7; format: cell-based
# hNav1.5 [11] = molecular target: T2, hNav1.5; format: cell-based
compound,measurement,setting,value
"CC[C@@H]1NC(=O)[C@H](CC(=O)O)NC(=O)[C@@H]2CCCN2C(=O)[C@H](CCC(=O)O)NC(=O)[C@@H]2CSSC[C@@H]3NC(=O)[C@H](C(C)C)NC(=O)[C@H](CC(C)C)NC(=O)[C@H](CC(N)=O)NC(=O)[C@@H]4CCCN4C(=O)[C@H](CCCNC(=N)N)NC(=O)[C@H](CSSC[C@H](NC(=O)[C@@H](N)CC(=O)O)C(=O)N[C@@H](CC(C)C)C(=O)NCC(=O)N[C@@H](C)C(=O)N[C@@H](Cc4ccccc4)C(=O)N[C@@H](CCCNC(=N)N)C(=O)N[C@@H](CCCCN)C(=O)N2)NC(=O)[C@H](CSSC[C@@H](C(=O)N[C@@H](CCCCN)C(=O)N[C@@H](Cc2ccc(O)cc2)C(=O)N[C@H](C(=O)N[C@@H](Cc2ccccc2)C(N)=O)C(C)C)NC(=O)[C@H](Cc2c[nH]c4ccccc24)NC(=O)[C@H](CCCNC(=N)N)NC(=O)[C@H](Cc2c[nH]cn2)NC(=O)[C@H](CC(C)C)NC(=O)[C@H](CCCNC(=N)N)NC(=O)[C@H](CO)NC3=O)NC(=O)[C@H](CCCCN)NC(=O)[C@H](CC(=O)O)NC1=O (H-DCLGAFRKCEPD[Abu]DKCCRPNLVCSRLHRWCKYVF-NH2; disulfide 2-17, 9-23, 16-30)",behavior of animals in the open field analysis,[1],moribund behavior or lethality
same,level at time molar at 2 h,in vivo [2],1720 ± 313 nM
CSCC[C@@H]1NC(=O)[C@H](Cc2ccccc2)NC(=O)CNC(=O)[C@H](CC(C)C)NC(=O)[C@@H](NC(=O)[C@@H](N)CC(=O)O)CSSC[C@@H]2NC(=O)[C@@H]3CSSC[C@@H](C(=O)N[C@@H](CCCCN)C(=O)N[C@@H](Cc4ccc(O)cc4)C(=O)N[C@H](C(=O)N[C@@H](Cc4ccccc4)C(N)=O)C(C)C)NC(=O)[C@H](Cc4c[nH]c5ccccc45)NC(=O)[C@H](CCCCN)NC(=O)[C@H](Cc4c[nH]cn4)NC(=O)[C@H]([C@@H](C)O)NC(=O)[C@H](CCCNC(=N)N)NC(=O)[C@H](CO)NC(=O)[C@H](CSSC[C@H](NC(=O)[C@H](CCCCN)NC(=O)[C@H](CCCNC(=N)N)NC1=O)C(=O)N[C@@H](Cc1cccc4ccccc14)C(=O)N1CCC[C@H]1C(=O)N[C@@H](CC(=O)O)C(=O)N[C@@H](CC(N)=O)C(=O)N[C@@H](CC(=O)O)C(=O)N[C@@H](CCCCN)C(=O)N3)NC(=O)[C@H](C(C)C)NC(=O)[C@H](CC(C)C)NC(=O)[C@H](CC(N)=O)NC(=O)[C@@H]1CCCN1C(=O)[C@H](CCCNC(=N)N)NC2=O [[1-Nal10]GpTx-1(1-34)],IC50,hNav1.7 [3],5 nM
same,% peptide remaining,[4]; incubation time 0 hr,100%
same,% peptide remaining,[4]; incubation time 2 hr,104%
same,% peptide remaining,[4]; incubation time 4 hr,106%
same,% peptide remaining,[4]; incubation time 6 hr,108%
same,% peptide remaining,[4]; incubation time 8 hr,112%
same,% peptide remaining,[4]; incubation time 24 hr,89%
same,IC50,hNav1.3; Nav1.3 Use IC50,39 nM
same,IC50,hNav1.5 [5],12900 nM
"CC[C@H](C)[C@@H]1NC(=O)[C@@H]2CSSC[C@@H]3NC(=O)[C@H](C(C)C)NC(=O)[C@H](CC(C)C)NC(=O)[C@H](CC(N)=O)NC(=O)[C@@H]4CCCN4C(=O)[C@H](CCCNC(=N)N)NC(=O)[C@H](CSSC[C@H](NC(=O)[C@@H](N)CC(=O)O)C(=O)N[C@@H](CC(C)C)C(=O)NCC(=O)N[C@@H](Cc4ccccc4)C(=O)N[C@@H](CCSC)C(=O)N[C@@H](CCCNC(=N)N)C(=O)N[C@@H](CCCCN)C(=O)N2)NC(=O)[C@H](CSSC[C@@H](C(=O)N[C@@H](CCCCN)C(=O)N[C@@H](Cc2ccc(O)cc2)C(=O)N[C@H](C(=O)N[C@@H](Cc2ccccc2)C(N)=O)C(C)C)NC(=O)[C@H](Cc2c[nH]c4ccccc24)NC(=O)[C@H](CCC(=O)O)NC(=O)[C@H](Cc2cnc[nH]2)NC(=O)[C@H]([C@@H](C)O)NC(=O)[C@H](CCCNC(=N)N)NC(=O)[C@H](CO)NC3=O)NC(=O)[C@H](CCCCN)NC(=O)[C@H](CC(=O)O)NC(=O)[C@H](CC(N)=O)NC(=O)[C@H](CC(=O)O)NC(=O)[C@@H]2CCCN2C1=O [[Glu28]GpTx-1(1-34)] (H-DCLGFMRKCIPDNDKCCRPNLVCSRTHEWCKYVF-NH2; disulfide 2-17, 9-23, 16-30)",IC50,hNav1.7 [3],26 nM
same,level at time molar at 2 h,in vivo [2],1280 ± 403 nM
"CC[C@H](C)[C@@H]1NC(=O)[C@@H]2CSSC[C@@H]3NC(=O)[C@H](C(C)C)NC(=O)[C@H](CC(C)C)NC(=O)[C@H](CC(N)=O)NC(=O)[C@@H]4CCCN4C(=O)[C@H](CCCNC(=N)N)NC(=O)[C@H](CSSC[C@H](NC(=O)[C@@H](N)CC(=O)O)C(=O)N[C@@H](CC(C)C)C(=O)NCC(=O)N[C@@H](Cc4ccccc4)C(=O)N[C@@H](CCSC)C(=O)N[C@@H](CCCNC(=N)N)C(=O)N[C@@H](CCCCN)C(=O)N2)NC(=O)[C@H](CSSC[C@@H](C(=O)N[C@@H](CCCCN)C(=O)N[C@@H](Cc2ccc(O)cc2)C(=O)N[C@H](C(=O)N[C@@H](Cc2ccccc2)C(N)=O)C(C)C)NC(=O)[C@H](CCC(=O)O)NC(=O)[C@H](CCCCN)NC(=O)[C@H](Cc2cnc[nH]2)NC(=O)[C@H]([C@@H](C)O)NC(=O)[C@H](CCCNC(=N)N)NC(=O)[C@H](CO)NC3=O)NC(=O)[C@H](CCCCN)NC(=O)[C@H](CC(=O)O)NC(=O)[C@H](CC(N)=O)NC(=O)[C@H](CC(=O)O)NC(=O)[C@@H]2CCCN2C1=O [[Glu29]GpTx-1(1-34)] (H-DCLGFMRKCIPDNDKCCRPNLVCSRTHKECKYVF-NH2; disulfide 2-17, 9-23, 16-30)",level at time molar at 2 h,in vivo [2],771 ± 272 nM
same,level at time molar at […],in vivo [6],502 ± 271 nM
"Cc1cccc(C)c1OCC(C)N (stereo not shown) [mexiletine, reference compound]",veratridine-induced paw lifting behavior,[7],significantly reversed
GVRDAYIADDKNCVYTCASNGYCNTECTKNGAESGYCQWIGRYGNACWCIKLPDEVPIRIPGKCR [OD1],EC50,NaV1.7,4.5 nM
"YCQKWMWTCDSERKCCEGMVCRLWCKKKLW [ProTx-II, YCQKWMWTCDSERKCCEGMVCRLWCKKKLW]",efficacy in a mechanical hyperalgesia study,mechanical hyperalgesia,not efficacious
same,tolerability in rats,[8],lethal
same,C-fiber compound action potential,[9],completely blocked
same,action potential propagation,[9],little effect
"[Phe6,Atz(2 kDa EtO-PEG*-{[Phe6,Atz13*]GpTx-1(1-34)}) 13]GpTx-1(1-34) [Homodimeric Conjugate 1]",IC50,hNav1.4,254 nM
same,inhibition of the Nav1.7 current,hNav1.7 [10],complete inhibition
same,IC50,hNav1.3; read-out: Nav1.3 Use IC50,8 nM
same,inhibition of the Nav1.5 current,hNav1.5 [11],complete inhibition
same,IC50,hNav1.5 [11]; read-out: IC50 against hNav1.5 sodium channels,75.5 nM
same,IC50,"hNav1.5 [11]; read-out: IC50 against hNav1.5 sodium channels, partially inactivated",57 nM
same,IC50,hNav1.5 [5],1430 nM
